Assays:
[1] = system: SKMEL2 cells; conditions: SKMEL2 cells (FIG. 4C)
Description: Cells were seeded in tissue culture dishes at a subconfluent density and allowed to attach overnight. The following day, cells were treated with or without U0126 (1 μM) diluted in growth media and incubated for 48 hours. […] After incubation, photomicrographs were taken and adherent cells were trypsinized, mixed with trypan blue dye and counted on a haemocytometer. Only viable cells which excluded trypan blue were counted. For SKMEL2, cells were seeded in 96-well plates after U0126 treatment and assayed after 72 h using the CellTiter-Glo assay according to the manufacturer's instructions (Promega, Madison, Wis.).

[2] = system: GPNMB surface expression on A375 melanoma cells; test: Flow cytometry of GPNMB surface expression, A375 cells; format: cell-based, human; conditions: for GPNMB surface expression, flow cytometry GeoMean: A375, CR011 (anti-GPNMB) primary antibody
Description: (§1) Cells were seeded in 6-well tissue culture dishes at a subconfluent density and allowed to attach overnight. The following day, cells were treated as indicated in the figures/legends, harvested with versene (Invitrogen), washed with PBS and incubated with primary antibody (10 μg/mL) diluted in staining buffer (PBS pH 7.4, 4% FBS, 0.1% sodium azide) for 30 minutes on ice. […] After incubation with primary antibody, samples were washed with staining buffer and then incubated with secondary antibody (PE-conjugated anti-human antibody; 1:100) for 30 minutes on ice. After incubation, samples were washed with staining buffer and examined on a Becton Dickinson FACSCalibur flow cytometer (BD Immunocytometry Systems, San Jose, Calif.). Data analysis was performed with Becton Dickinson Cell Quest software and the geometric mean fluorescence intensity (GeoMean) was determined for each sample.
(§2) For the data shown in Table 37, flow cytometry was performed on intact, non-permeabilized cells using the indicated primary monoclonal antibodies. […] The results are reported as GeoMeans. […] For the data shown in the bottom left panel of Table 37, SKMEL2 (melanoma) cells were treated with MEKi (U0126; 10 uM), imatinib (20 uM), p38i (p38 MAPKi SB202190; 50 uM), NH4Cl (ammonium chloride; 20 mM) or CLQ (chloroquine; 20 uM) for 48 hours prior to analysis. For the data shown in the bottom right panel of Table 37, WM2664 (melanoma) cells were treated with MON (monensin) or MMPi (GM6001) for 48 hours prior to analysis.

[3] = system: MART-1, TYRP-2, TYRP-1, PMEL17, MAGEA1, MCSP, MTf, MCAM; conditions: melanoma cell lines, U0126 20 μM, 48 hours (FIG. 5)
Description: Cells were seeded in 6-well tissue culture dishes at a subconfluent density and allowed to attach overnight. For harvesting cell lysates, media was removed, cells were briefly washed with serum-free media and then 1× Tris-glycine SDS sample buffer (Invitrogen, Carlsbad, Calif.) supplemented with 10 mM dithiothreitol (Sigma) was added directly to the wells. Cell lysates were then collected and boiled for 10 minutes. For preparing conditioned media, drug treatments were performed in a minimum volume of growth media (1.5 mL/well). Following 48 hours of incubation, conditioned media was collected, briefly microfuged, mixed with an equal volume of 2× Tris-glycine SDS sample buffer (Invitrogen, Carlsbad, Calif.) supplemented with 20 mM dithiothreitol (Sigma) and boiled for 10 minutes. For cell lysates, samples were quantified and an equal quantity of protein/lane was resolved on 4-20% gradient polyacrylamide gels (Invitrogen) and then transferred to nitrocellulose filters (Invitrogen). The volume of conditioned media loaded/lane was adjusted based on the protein concentration determined in the respective cell lysates. […]

[4] = system: UACC62 melanoma cells; test: In vitro growth-inhibition/cytotoxicity assay, UACC62 cells; format: cell-based, human; conditions: UACC62 cells
[5] = system: phospho-ERK (pp-ERK); test: Immunoblotting for phospho-ERK (level of ERK activation); format: cell-based, human
Description: In the experiment presented in FIG. 2A, potential inhibition of the ERK pathway was investigated by immunoblotting for phospho-ERK (pp-ERK), which represents the active form of this signaling molecule.

[6] = system: GPNMB surface expression on SF539 glioblastoma cells; test: Flow cytometry of GPNMB surface expression, SF539 cells; format: cell-based, human; conditions: SF549, CR011 (anti-GPNMB) primary antibody
Description: as §1, §2

[7] = system: GPNMB surface expression on SKMEL2 melanoma cells; test: Flow cytometry of GPNMB surface expression, SKMEL2 cells; format: cell-based, human; conditions: SKMEL2; CR011 (anti-GPNMB) primary antibody; MEKi (U0126) 10 uM, imatinib 20 uM, p38i (SB202190) 50 uM
Description: as §1
For the data shown in Table 37, flow cytometry was performed on intact, non-permeabilized cells using the indicated primary monoclonal antibodies. […] The results are reported as GeoMeans. For the data shown in the top panel of Table 37, A375 (melanoma) or SF539 (glioblastoma) cells were treated with the indicated concentrations of MEKi (U0126), RAFKi (553013) or ERKi (FR180204) for 12, 24 or 48 hours prior to analysis. For the data shown in the bottom left panel of Table 37, SKMEL2 (melanoma) cells were treated with MEKi (U0126; 10 uM), imatinib (20 uM), p38i (p38 MAPKi SB202190; 50 uM), NH4Cl (ammonium chloride; 20 mM) or CLQ (chloroquine; 20 uM) for 48 hours prior to analysis. For the data shown in the bottom right panel of Table 37, WM2664 (melanoma) cells were treated with MON (monensin) or MMPi (GM6001) for 48 hours prior to analysis.

N#CC(=C(/N)Sc1ccccc1N)/C(C#N)=C(\N)Sc1ccccc1N [Mab U0126]
sensitization to CR011-vcMMAE by pretreatment [1]: sensitized | GPNMB surface expression, flow cytometry GeoMean ([2]; MEKi (U0126) 5 um, 12 h): 14.7 | GPNMB surface expression, flow cytometry GeoMean ([2]; MEKi (U0126) 5 um, 24 h): 16.4 | GPNMB surface expression, flow cytometry GeoMean ([2]; MEKi (U0126) 5 um, 48 h): 52.4 | GPNMB surface expression, flow cytometry GeoMean ([2]; MEKi (U0126) 20 um, 12 h): 18.3 | GPNMB surface expression, flow cytometry GeoMean ([2]; MEKi (U0126) 20 um, 24 h): 22.4 | GPNMB surface expression, flow cytometry GeoMean ([2]; MEKi (U0126) 20 um, 48 h): 84.0 | GPNMB surface expression ([2]; A375 melanoma, 12, 24 or 48 hours (Table 37, top)): induced GPNMB surface expression | expression of MART-1, TYRP-2, TYRP-1, PMEL17 [3]: induced by MEK inhibition in some cell lines | expression of other targets (MAGEA1, MCSP) [3]: either were not effected or even decreased | sensitization to CR011-vcMMAE by pretreatment, CellTiter-Glo assay (ATP) [4]: confirmed | sensitization to growth-inhibitory activity of CR011-vcMMAE by pretreatment [4]: sensitized | inhibition of the ERK pathway (phospho-ERK levels) ([5]; A375 and SKMEL2 cell lines (FIG. 3B)): robust and sustained inhibition | inhibition of the ERK pathway (phospho-ERK levels) ([5]; SF539 cells (FIG. 3B)): transient inhibition | GPNMB surface expression, flow cytometry GeoMean ([6]; MEKi (U0126) 5 um, 12 h): 41.5 | GPNMB surface expression, flow cytometry GeoMean ([6]; MEKi (U0126) 5 um, 24 h): 36.3 | GPNMB surface expression, flow cytometry GeoMean ([6]; MEKi (U0126) 5 um, 48 h): 41.5 | GPNMB surface expression, flow cytometry GeoMean ([6]; MEKi (U0126) 20 um, 12 h): 46.3 | GPNMB surface expression, flow cytometry GeoMean ([6]; MEKi (U0126) 20 um, 24 h): 39.2 | GPNMB surface expression, flow cytometry GeoMean [7]: 174.5
